Test results reported in patent US20230168243A1, “METHODS FOR DIAGNOSING IMMEDIATE HYPERSENSITIVY REACTION” (Universiteit Antwerpen, priority 2020, published 2023).

Assays:
[1] = tested on: cultured human donor mast cells (dMCs); test: Mast cell activation test (MAT): CD63 upregulation on donor mast cells passively sensitized with patients' sera (dMCIgE+), flow cytometry; type: cell-based; conditions: for CD63 upregulated after activation / CD63 upregulation: dMCIgE+ sensitized with patients' sera, mean; for CD63 upregulated after activation: first donor, 20 min; for CD63 upregulation: second donor; for up-regulation of CD63 (% of the cells): donor MCs passively sensitized with serum containing chlorhexidine-reactive IgE antibodies, FIG. 7
Procedure: Human MCs were cultured as described in Cop N, et al. Influence of IL-6, IL-33, and TNF-alpha on human mast cell activation: Lessons from single cell analysis by flow cytometry. Cytometry B Clin Cytom 2018; 94:405-11. Briefly, peripheral blood mononuclear cells were isolated from 50 mL peripheral blood from healthy volunteers. CD34^+ progenitor cells were enriched using the EasySep Human CD34 Selection Kit (Stemcell Technologies, Vancouver, Canada) according to the manufacturer's instructions. Isolated CD34^+ progenitor cells were cultured in a serum-free methylcellulose-based medium (MethoCult SF H4236, Stemcell Technologies) supplemented with penicillin (100 units/mL, Life Technologies, Waltham, USA), streptomycin (100 μg/mL, Life Technologies), low-density lipoprotein (LDL, 10 μg/mL, Stemcell Technologies), 2-mercaptoethanol (55 μmol/L, Life Technologies), stem cell factor (SCF, 100 ng/mL, Miltenyi Biotec, Bergisch Gladbach, Germany), interleukin-3 (IL-3, 100 ng/mL, PeproTech, Rocky Hill, USA) and interleukin-6 (IL-6, 50 ng/mL, Miltenyi Biotec) during 4-5 weeks. Participants gave a written informed consent as approved by the Ethical Committee of the University Hospital of Antwerp (Belgium B300201316408).
Degranulation of dMC was measured by overnight passively sensitizing the cells with serum at 37° C. in a humidified CO2-incubator. Next, dMC^IgE+ were centrifuged (500 g, 5 minutes, 20° C.) and the cell pellet was resolved in pre-warmed Tyrode's buffer (Sigma-Aldrich, St. Louis, USA) at a concentration of 0.5×10^6 cells/mL. Thereafter, 100 μL of the cells were pre-incubated with IL-33 (100 ng/mL) (Peprotech) for 20 minutes on 37° C. Subsequently, these pre-incubated dMC^IgE+ were stimulated with 100 μL Tyrode's buffer as a negative control or 100 μL of CHX (Sigma-Aldrich) during 20 minutes at 37° C. The final concentrations of CHX were: 0.05, 5, 500, 50 000 ng/mL, i.e. 0.0028, 0.28, 28; 2800 nM). Reactions were stopped by placing the cells on ice and removing the supernatants (500 g, 5 minutes, 4° C.). Cells were stained with monoclonal anti-human CD117-APC (clone 104D2, BD Biosciences, Erembodegem, Belgium), CD203c-PeCy7 (clone NP4D6, eBioscience) and CD63-FITC (clone H5C6, BD Bioscience) for 20 minutes at 4° C. Finally, cells were washed and resolved in PBS with 0.1% sodium azide and measured. Degranulation of dMCs was measured as surface upregulation of the lysosomal degranulation marker CD63. The mast cell activation test is repeated on dMCs of two different volunteers.
Flow cytometric analysis was performed on a FACSCanto II flow cytometer (BD Immunocytometry Systems, San Jose, Calif.) equipped with three lasers (405 nm, 488 nm and 633 nm). Correct compensation settings for antibodies conjugated with fluorochromes were performed using BD CompBeads (BD Biosciences). Flow cytometric data were analyzed using Kaluza Analysis 1.5 software (Beckman Coulter, USA). Unstained samples were used to set a marker between positive and negative cells according to the 99th percentile. A fluorescence minus one (FMO) was used to set a marker between positive and negative cells. Mast cells were gated out as CD117 and CD203c positive cells. Results are expressed as mean and range.
Human MCs were obtained as described in Example 1. Sera from patients with perioperative anaphylaxis were selected based on the presence of sIgE against rocuronium >0.13 kUa/L and a positive skin test rocuronium. MC activation was determined as described in Example 1 and cells were stimulated during 3 and 20 minutes, preferably 20 minutes, with final concentrations of rocuronium of 1.64, 16.4, 164 and 1640 μM.
Human MCs were obtained as described in Example 1.

[2] = tested on: cultured human donor mast cells (dMCs); test: Direct mast cell activation: CD63 upregulation on donor mast cells not passively sensitized with serum (dMCIgE-); type: cell-based; conditions: for CD63 upregulation / activation of unsensitized (unloaded) mast cells: MCs not passively sensitized with patients' serum

Row | Structure (SMILES) | CD63 upregulation after stimulation ([1]; dMCIgE+ sensitized with serum of a rocuronium-allergic patient, rocuronium end concentration 164 μM, representative plot FIG. 6) [%] | CD63 upregulation after stimulation ([2]; dMCIgE- not passively sensitized, rocuronium end concentration 164 μM, representative plot FIG. 6) [%] | CD63 upregulation (degranulation) ([1]; dMC sensitized with sera of patients with isolated sIgE CHX (negative skin test and BAT)) | CD63 upregulated after activation ([1]; CHX 0.05 ng/mL (0.0028 nM), printed range 1-22) [%] | CD63 upregulated after activation ([1]; CHX 5 ng/mL (0.28 nM), printed range 1-76) [%] | CD63 upregulated after activation ([1]; CHX 500 ng/mL (28 nM), printed range 6-86) [%] | CD63 upregulated after activation ([1]; CHX 50000 ng/mL (2800 nM), printed range 0-88) [%] | CD63 upregulation ([1]; CHX 0.05 ng/mL (0.0028 nM), printed range 0-21) [%] | CD63 upregulation ([1]; CHX 5 ng/mL (0.28 nM), printed range 2-44) [%] | CD63 upregulation ([1]; CHX 500 ng/mL (28 nM), printed range 3-64) [%] | CD63 upregulation ([1]; CHX 50000 ng/mL (2800 nM), printed range 0-73) [%] | up-regulation of CD63 (% of the cells) [1] [%] | CD63 upregulation / activation of unsensitized (unloaded) mast cells [2] | CD63 upregulation / activation of unsensitized (unloaded) mast cells ([2]; listed as CHX)
1 | C=CC[N+]1([C@H]2C[C@H]3[C@@H]4CC[C@H]5C[C@H](O)[C@@H](N6CCOCC6)C[C@]5(C)[C@H]4CC[C@]3(C)[C@H]2OC(C)=O)CCCC1 [rocuronium] | 24 | 0 |  |  |  |  |  |  |  |  |  |  |  | 
2 | [H]/N=C(\N/C(=N/[H])NCCCCCCNC(=N)NC(=N)Nc1ccc(Cl)cc1)Nc1ccc(Cl)cc1 [chlorhexidine, 1:6-di(4-chlorophenyldiguanido)-hexane] |  |  | no upregulation of CD63 | 1 | 10 | 57 | 31 | 2 | 7 | 30 | 45 | 18 | did not upregulate CD63 | could not elicit activation/degranulation
3 | CCCCCCCCN=c1ccn(CCCCCCCCCCn2ccc(=NCCCCCCCC)cc2)cc1 [octenidine] |  |  |  |  |  |  |  |  |  |  |  | 18 | did not upregulate CD63 | 
